Data as given in ChEMBL document CHEMBL2311512, “Addition of thiols to o-quinone methide: new 2-hydroxy-3-phenylsulfanylmethyl[1,4]naphthoquinones and their activity against the human malaria parasite Plasmodium falciparum (3D7)” (Eur J Med Chem, 2013).

test system: Plasmodium falciparum; assay: Antiplasmodial activity against Plasmodium falciparum 3D7 infected in RBC by flow cytometry analysis; format: functional, organism-based

**Q.** How did the IC50 turn out when `O=C1C(O)=C(CSc2ccc(F)cc2)C(=O)c2ccccc21` was run?
**A.** Its IC50 is 7 µM.

**Q.** With `O=C1C(O)=C(C(Sc2ccc(F)cc2)c2ccc([N+](=O)[O-])cc2)C(=O)c2ccccc21` (racemic) as the compound, how does the IC50 read?
**A.** Its IC50 is 14.3 µM.

**Q.** For `O=C1C(=O)c2ccccc2C(O)=C1CSc1ccc(Cl)cc1`, which IC50 is on record?
**A.** The IC50 was 20 µM.

**Q.** `CSc1ccc(SCC2=C(O)C(=O)c3ccccc3C2=O)cc1` was tested. Which IC50 did it give?
**A.** The IC50 was 22.3 µM.

**Q.** For `O=C1C(O)=C(CSc2ccc3ccccc3c2)C(=O)c2ccccc21`, which IC50 is on record?
**A.** The IC50 was 14.5 µM.

**Q.** How did the IC50 turn out when `CSc1ccc(SC(C2=C(O)C(=O)c3ccccc3C2=O)c2ccccc2)cc1` (racemic) was run?
**A.** Its IC50 is 18.2 µM.

**Q.** With `O=C1C(O)=C([C@H]2CC[C@H](c3ccc(Cl)cc3)CC2)C(=O)c2ccccc21` [ATOVAQUONE] as the compound, how does the IC50 read?
**A.** Its IC50 is 0.003 µM.

**Q.** Which IC50 does the source give for `O=C1C(O)=C(C(Sc2ccccc2)c2ccc([N+](=O)[O-])cc2)C(=O)c2ccccc21` (racemic) here?
**A.** The IC50 was 16.8 µM.

**Q.** How did the IC50 turn out when `CCCSC(C1=C(O)C(=O)c2ccccc2C1=O)c1ccc([N+](=O)[O-])cc1` (racemic) was run?
**A.** Its IC50 is 27.8 µM.

**Q.** How did the IC50 turn out when `Cc1ccccc1SCC1=C(O)C(=O)c2ccccc2C1=O` was run?
**A.** The IC50 was 9.7 µM.

**Q.** How did the IC50 turn out when `CCCSC(C1=C(O)C(=O)c2ccccc2C1=O)c1ccccc1` (racemic) was run?
**A.** Its IC50 is 13.8 µM.

**Q.** With `Cc1ccccc1SC(C1=C(O)C(=O)c2ccccc2C1=O)c1ccccc1` (racemic) as the compound, how does the IC50 read?
**A.** Its IC50 is 17.6 µM.

**Q.** How did the IC50 turn out when `Cc1ccc(SCC2=C(O)C(=O)c3ccccc3C2=O)cc1` was run?
**A.** The IC50 was 6.8 µM.

**Q.** Which IC50 does the source give for `O=C1C(O)=C(C(Sc2ccc(O)cc2)c2ccc([N+](=O)[O-])cc2)C(=O)c2ccccc21` (racemic) here?
**A.** Its IC50 is 7.5 µM.

**Q.** For `Cc1cccc(SC(C2=C(O)C(=O)c3ccccc3C2=O)c2ccccc2)c1` (racemic), which IC50 is on record?
**A.** Its IC50 is 34.2 µM.

**Q.** Which IC50 does the source give for `Cc1ccc(SC(C2=C(O)C(=O)c3ccccc3C2=O)c2ccc([N+](=O)[O-])cc2)cc1` (racemic) here?
**A.** The IC50 was 27 µM.

**Q.** `O=C1C(O)=C(C(Sc2ccc3ccccc3c2)c2ccc([N+](=O)[O-])cc2)C(=O)c2ccccc21` (racemic) was tested. Which IC50 did it give?
**A.** The IC50 was 19.9 µM.

**Q.** With `Cc1cccc(SC(C2=C(O)C(=O)c3ccccc3C2=O)c2ccc([N+](=O)[O-])cc2)c1` (racemic) as the compound, how does the IC50 read?
**A.** The IC50 was 10.7 µM.

**Q.** Which IC50 does the source give for `O=C1C(O)=C(C(Sc2ccc([N+](=O)[O-])cc2)c2ccccc2)C(=O)c2ccccc21` (racemic) here?
**A.** The IC50 was 13.9 µM.

**Q.** How did the IC50 turn out when `O=C1C(O)=C(CSc2ccccc2)C(=O)c2ccccc21` was run?
**A.** Its IC50 is 27.1 µM.

**Q.** For `Cc1ccccc1SC(C1=C(O)C(=O)c2ccccc2C1=O)c1ccc([N+](=O)[O-])cc1` (racemic), which IC50 is on record?
**A.** Its IC50 is 6.6 µM.

**Q.** For `COc1ccc(SCC2=C(O)C(=O)c3ccccc3C2=O)cc1`, which IC50 is on record?
**A.** Its IC50 is 9.3 µM.

**Q.** For `O=C1C(O)=C(CSc2ccc([N+](=O)[O-])cc2)C(=O)c2ccccc21`, which IC50 is on record?
**A.** Its IC50 is 14.4 µM.

**Q.** For `O=C1C(O)=C(C(Sc2ccc(Cl)cc2)c2ccc([N+](=O)[O-])cc2)C(=O)c2ccccc21` (racemic), which IC50 is on record?
**A.** The IC50 was 7.5 µM.

**Q.** `CCCSCC1=C(O)C(=O)c2ccccc2C1=O` was tested. Which IC50 did it give?
**A.** The IC50 was 31.8 µM.

**Q.** Which IC50 does the source give for `Cc1cccc(SCC2=C(O)C(=O)c3ccccc3C2=O)c1` here?
**A.** The IC50 was 5.4 µM.
